From ChEMBL document CHEMBL4190379 (Bioorg Med Chem Lett, 2018)

Assays:
[1] = target: Histone acetyltransferase KAT2A (Homo sapiens) (UniProt Q92830); test: Binding affinity to human GCN5L2 expressed in bacterial system assessed as remaining binding level at 1 uM by BROMOscan assay relative to control
[2] = target: Protein polybromo-1 (Homo sapiens) (UniProt Q86U86); test: Binding affinity to human PBRM1 bromodomain 2 expressed in bacterial system assessed as remaining binding level at 1 uM by BROMOscan assay relative to control
[3] = target: T1, Bromodomain-containing protein 4 (Homo sapiens, UniProt O60885); test: Binding affinity to His-tagged BRD4 bromodomain 1 to 2 (K57 to K550 amino acids) (unknown origin) using Alexa647-labeled BET-inhibitor as fluorescent probe by bromodomain TR-FRET binding assay; type: single protein
MX1 = test: Antiproliferative activity against human MX1 cells incubated for 72 hrs by cell-titer Glo assay; type: functional, cell-based; conditions: MX1, 72 h
[4] = Intrinsic unbound clearance in human liver microsomes; type: ADME, microsome
[5] = Permeability of the compound by PAMPA method; type: ADME; conditions: read-out: permeability
[6] = target: Bromodomain-containing protein 3 (Homo sapiens, UniProt Q15059); test: Binding affinity to BRD3 bromodomain 1 to 2 (P24 to P416 amino acids) (unknown origin) using Alexa647-labeled BET-inhibitor as fluorescent probe by bromodomain TR-FRET binding assay
[7] = target: T1, Bromodomain-containing protein 4; test: Binding affinity to BRD4 bromodomain 1 (K57 to E168 amino acids) (unknown origin) using Alexa647-labeled BET-inhibitor as fluorescent probe by bromodomain TR-FRET binding assay
[8] = target: T1, Bromodomain-containing protein 4; test: Binding affinity to BRD4 bromodomain 2 (E352 to M457 amino acids) (unknown origin) using Alexa647-labeled BET-inhibitor as fluorescent probe by bromodomain TR-FRET binding assay
[9] = target: T2, ATPase family AAA domain-containing protein 2B (Homo sapiens) (UniProt Q9ULI0); test: Binding affinity to human ATAD2B expressed in bacterial system assessed as remaining binding level at 1 uM by BROMOscan assay relative to control
T2 sequence (whole entry): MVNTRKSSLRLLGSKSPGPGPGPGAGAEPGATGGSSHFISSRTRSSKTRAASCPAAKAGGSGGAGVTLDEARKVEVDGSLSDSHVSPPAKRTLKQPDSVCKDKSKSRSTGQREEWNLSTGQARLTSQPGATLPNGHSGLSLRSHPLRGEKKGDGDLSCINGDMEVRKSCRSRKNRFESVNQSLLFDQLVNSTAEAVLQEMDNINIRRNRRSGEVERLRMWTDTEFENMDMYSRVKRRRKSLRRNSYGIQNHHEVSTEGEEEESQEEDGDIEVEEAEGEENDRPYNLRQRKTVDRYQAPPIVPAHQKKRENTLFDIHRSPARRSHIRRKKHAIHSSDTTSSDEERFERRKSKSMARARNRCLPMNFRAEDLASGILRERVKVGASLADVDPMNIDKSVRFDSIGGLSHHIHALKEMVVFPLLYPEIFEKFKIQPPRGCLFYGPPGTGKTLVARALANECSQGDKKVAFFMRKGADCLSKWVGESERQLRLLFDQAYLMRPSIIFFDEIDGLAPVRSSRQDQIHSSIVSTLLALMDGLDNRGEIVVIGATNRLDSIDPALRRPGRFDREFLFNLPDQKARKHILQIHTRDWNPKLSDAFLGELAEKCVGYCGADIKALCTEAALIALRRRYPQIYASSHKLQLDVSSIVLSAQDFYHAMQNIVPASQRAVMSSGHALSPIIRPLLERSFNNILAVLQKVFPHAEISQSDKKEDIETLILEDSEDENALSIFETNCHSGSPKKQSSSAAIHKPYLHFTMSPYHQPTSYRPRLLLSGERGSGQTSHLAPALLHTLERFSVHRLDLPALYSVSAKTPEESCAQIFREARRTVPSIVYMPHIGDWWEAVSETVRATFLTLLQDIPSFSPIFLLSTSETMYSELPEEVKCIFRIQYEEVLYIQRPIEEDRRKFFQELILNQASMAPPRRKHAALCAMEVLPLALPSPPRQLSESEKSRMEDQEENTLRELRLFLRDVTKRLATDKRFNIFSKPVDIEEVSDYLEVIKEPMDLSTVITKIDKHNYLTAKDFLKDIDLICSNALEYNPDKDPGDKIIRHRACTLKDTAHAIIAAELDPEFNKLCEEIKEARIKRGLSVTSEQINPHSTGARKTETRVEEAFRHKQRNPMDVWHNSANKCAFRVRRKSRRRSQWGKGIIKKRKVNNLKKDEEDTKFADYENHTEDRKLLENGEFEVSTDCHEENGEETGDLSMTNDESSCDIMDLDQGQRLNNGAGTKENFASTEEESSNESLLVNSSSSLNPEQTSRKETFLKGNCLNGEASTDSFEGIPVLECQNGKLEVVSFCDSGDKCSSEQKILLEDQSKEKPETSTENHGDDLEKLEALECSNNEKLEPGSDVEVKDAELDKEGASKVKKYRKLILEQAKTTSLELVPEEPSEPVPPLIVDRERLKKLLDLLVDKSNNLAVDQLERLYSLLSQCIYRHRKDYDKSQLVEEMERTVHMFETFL

[10] = target: Chromatin remodeling regulator CECR2 (Homo sapiens) (UniProt Q9BXF3); test: Binding affinity to human CECR2 expressed in bacterial system assessed as remaining binding level at 1 uM by BROMOscan assay relative to control
[11] = target: Protein polybromo-1 (Homo sapiens) (UniProt Q86U86); test: Binding affinity to human PBRM1 bromodomain 5 expressed in bacterial system assessed as remaining binding level at 1 uM by BROMOscan assay relative to control
[12] = target: SWI/SNF-related matrix-associated actin-dependent regulator of chromatin subfamily A member 2 (Homo sapiens) (UniProt P51531); test: Binding affinity to human SMARCA2 expressed in bacterial system assessed as remaining binding level at 1 uM by BROMOscan assay relative to control
[13] = target: Bromodomain and WD repeat-containing protein 1 (Homo sapiens) (UniProt Q9NSI6); test: Binding affinity to human WDR9 bromodomain 2 expressed in bacterial system assessed as remaining binding level at 1 uM by BROMOscan assay relative to control

Chain of Chromatin remodeling regulator CECR2 (Homo sapiens) (Q9BXF3 whole entry, looked up): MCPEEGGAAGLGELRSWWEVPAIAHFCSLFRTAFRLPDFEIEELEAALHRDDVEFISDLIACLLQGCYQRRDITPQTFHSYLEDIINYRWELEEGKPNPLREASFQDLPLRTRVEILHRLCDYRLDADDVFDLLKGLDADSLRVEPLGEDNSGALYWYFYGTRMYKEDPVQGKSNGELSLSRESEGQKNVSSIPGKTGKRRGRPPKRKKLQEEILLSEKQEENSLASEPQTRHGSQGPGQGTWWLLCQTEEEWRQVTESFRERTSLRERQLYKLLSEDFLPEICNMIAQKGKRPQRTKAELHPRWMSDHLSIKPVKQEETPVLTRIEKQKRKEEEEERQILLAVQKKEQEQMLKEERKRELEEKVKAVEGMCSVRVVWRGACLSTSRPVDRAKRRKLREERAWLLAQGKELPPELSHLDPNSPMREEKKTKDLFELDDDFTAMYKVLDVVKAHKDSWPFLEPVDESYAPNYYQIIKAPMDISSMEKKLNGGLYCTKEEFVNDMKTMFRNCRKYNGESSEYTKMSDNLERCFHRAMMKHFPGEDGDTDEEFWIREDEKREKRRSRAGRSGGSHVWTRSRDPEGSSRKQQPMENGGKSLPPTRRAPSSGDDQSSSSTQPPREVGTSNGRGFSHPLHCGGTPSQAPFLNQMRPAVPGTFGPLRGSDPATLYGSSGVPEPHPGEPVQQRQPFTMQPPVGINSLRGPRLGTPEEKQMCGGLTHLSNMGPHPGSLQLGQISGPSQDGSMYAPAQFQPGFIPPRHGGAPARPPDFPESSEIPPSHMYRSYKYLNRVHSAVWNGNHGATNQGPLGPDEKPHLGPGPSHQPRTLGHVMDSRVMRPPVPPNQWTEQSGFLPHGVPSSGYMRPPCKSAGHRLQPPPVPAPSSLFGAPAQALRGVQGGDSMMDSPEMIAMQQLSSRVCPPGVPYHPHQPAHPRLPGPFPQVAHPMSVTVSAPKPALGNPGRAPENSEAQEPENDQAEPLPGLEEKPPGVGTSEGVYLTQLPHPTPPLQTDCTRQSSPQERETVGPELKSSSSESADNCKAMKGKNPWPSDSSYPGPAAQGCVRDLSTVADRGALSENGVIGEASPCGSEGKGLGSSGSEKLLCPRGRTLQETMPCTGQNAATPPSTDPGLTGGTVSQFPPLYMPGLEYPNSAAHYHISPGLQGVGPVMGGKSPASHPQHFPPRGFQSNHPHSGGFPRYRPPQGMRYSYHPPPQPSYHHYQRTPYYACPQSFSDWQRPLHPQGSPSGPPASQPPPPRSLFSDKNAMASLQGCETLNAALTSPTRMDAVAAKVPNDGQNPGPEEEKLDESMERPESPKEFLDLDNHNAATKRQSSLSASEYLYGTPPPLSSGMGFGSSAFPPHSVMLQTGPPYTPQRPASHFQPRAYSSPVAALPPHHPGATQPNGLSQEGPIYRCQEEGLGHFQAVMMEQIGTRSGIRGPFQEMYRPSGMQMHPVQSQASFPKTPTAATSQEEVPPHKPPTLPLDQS
Chain of Bromodomain-containing protein 3 (Q15059 whole entry, the tested form may be a part): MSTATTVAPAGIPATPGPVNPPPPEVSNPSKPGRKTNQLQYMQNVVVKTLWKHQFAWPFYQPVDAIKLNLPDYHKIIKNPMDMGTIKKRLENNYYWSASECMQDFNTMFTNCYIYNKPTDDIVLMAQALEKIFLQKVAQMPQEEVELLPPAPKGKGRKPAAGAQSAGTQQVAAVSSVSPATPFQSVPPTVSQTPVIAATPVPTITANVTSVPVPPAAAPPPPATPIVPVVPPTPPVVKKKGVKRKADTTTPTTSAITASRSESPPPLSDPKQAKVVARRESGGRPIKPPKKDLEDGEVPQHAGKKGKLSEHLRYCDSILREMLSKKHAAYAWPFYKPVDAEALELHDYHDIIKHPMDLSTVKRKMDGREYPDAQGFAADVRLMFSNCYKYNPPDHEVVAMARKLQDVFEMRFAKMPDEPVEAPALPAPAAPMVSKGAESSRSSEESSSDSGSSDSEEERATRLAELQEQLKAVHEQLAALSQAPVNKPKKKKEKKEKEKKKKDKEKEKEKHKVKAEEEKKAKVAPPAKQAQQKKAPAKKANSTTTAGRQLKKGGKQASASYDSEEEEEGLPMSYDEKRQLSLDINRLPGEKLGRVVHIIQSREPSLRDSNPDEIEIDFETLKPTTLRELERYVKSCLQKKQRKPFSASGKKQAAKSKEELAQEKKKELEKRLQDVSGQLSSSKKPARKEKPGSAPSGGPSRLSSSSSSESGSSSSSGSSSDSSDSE
Chain of Protein polybromo-1 (Homo sapiens) (Q86U86 whole entry, the tested form may be a part): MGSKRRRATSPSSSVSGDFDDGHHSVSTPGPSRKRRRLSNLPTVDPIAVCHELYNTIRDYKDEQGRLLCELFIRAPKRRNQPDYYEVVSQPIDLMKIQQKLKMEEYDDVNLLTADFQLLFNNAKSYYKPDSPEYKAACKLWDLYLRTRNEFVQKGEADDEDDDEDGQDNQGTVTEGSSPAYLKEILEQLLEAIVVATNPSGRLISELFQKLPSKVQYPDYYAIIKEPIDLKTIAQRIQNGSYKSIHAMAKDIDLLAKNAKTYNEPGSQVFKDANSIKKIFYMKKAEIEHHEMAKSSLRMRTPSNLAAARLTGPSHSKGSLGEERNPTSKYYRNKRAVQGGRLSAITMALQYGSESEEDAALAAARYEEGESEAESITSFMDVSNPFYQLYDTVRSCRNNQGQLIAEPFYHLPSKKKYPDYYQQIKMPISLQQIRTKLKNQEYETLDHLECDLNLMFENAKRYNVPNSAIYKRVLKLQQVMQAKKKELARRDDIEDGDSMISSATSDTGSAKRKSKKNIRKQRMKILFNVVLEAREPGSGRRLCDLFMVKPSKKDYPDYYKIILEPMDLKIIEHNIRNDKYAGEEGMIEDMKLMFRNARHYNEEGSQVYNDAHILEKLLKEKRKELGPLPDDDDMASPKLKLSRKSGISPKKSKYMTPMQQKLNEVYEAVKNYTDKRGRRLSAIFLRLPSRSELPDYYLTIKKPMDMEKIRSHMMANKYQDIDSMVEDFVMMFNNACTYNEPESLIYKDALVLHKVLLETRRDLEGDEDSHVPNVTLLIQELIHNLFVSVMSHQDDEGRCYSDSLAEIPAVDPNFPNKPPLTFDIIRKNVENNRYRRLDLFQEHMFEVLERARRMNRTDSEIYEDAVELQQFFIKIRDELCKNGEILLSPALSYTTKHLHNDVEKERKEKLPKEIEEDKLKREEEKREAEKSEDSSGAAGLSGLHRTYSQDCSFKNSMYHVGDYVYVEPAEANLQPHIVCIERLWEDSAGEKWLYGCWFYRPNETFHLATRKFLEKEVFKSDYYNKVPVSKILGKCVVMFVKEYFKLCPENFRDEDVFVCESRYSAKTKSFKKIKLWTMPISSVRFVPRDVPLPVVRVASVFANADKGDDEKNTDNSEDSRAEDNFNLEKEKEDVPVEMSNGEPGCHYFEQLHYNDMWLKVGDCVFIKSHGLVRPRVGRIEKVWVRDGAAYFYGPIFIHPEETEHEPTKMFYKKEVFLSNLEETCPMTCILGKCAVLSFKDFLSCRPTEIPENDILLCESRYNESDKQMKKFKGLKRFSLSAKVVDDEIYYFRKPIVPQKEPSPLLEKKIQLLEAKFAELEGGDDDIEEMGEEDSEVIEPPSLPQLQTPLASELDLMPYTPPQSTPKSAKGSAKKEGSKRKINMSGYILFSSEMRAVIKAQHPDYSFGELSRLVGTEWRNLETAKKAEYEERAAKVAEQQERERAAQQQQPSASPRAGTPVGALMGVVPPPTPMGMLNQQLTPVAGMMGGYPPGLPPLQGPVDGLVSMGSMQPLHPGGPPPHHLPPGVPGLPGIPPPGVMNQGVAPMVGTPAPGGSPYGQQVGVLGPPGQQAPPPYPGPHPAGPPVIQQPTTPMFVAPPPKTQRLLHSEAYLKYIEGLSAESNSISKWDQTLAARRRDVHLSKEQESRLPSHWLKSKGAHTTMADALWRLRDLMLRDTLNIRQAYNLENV
Chain of Histone acetyltransferase KAT2A (Homo sapiens) (Q92830 2-837 limits assumed): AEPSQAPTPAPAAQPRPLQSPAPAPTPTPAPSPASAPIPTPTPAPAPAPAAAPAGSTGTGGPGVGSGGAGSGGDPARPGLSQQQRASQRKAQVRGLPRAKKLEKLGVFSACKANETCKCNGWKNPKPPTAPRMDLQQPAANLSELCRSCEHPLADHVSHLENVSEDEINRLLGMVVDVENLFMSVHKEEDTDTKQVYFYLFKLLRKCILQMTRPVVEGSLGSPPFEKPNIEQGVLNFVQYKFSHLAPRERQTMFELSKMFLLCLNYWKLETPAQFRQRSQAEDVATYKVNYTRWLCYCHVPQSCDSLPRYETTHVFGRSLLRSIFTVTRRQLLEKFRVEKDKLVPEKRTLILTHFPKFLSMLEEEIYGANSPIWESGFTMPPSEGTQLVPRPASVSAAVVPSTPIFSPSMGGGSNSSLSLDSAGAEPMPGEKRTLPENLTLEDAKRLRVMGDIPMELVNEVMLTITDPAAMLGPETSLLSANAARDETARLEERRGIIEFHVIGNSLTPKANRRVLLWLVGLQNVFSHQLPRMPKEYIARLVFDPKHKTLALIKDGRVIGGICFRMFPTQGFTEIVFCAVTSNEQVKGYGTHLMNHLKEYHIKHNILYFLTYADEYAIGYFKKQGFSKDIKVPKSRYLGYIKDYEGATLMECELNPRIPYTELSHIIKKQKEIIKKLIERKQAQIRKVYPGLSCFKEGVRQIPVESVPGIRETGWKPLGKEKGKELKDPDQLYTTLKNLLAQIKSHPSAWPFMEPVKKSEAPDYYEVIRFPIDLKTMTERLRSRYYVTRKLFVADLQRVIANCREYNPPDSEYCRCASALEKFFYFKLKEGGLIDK

SMILES	Activity [1]	Activity [2]	Ki [3]	EC50 (MX1)	CL free [4]	Papp [5]	Ki [6]	Ki [7]	Ki [8]	Activity [9]	Activity [10]	Activity [11]	Activity [12]	Activity [13]
Cn1cc2c3c(c[nH]c(=O)c31)-c1cc(CS(C)(=O)=O)ccc1N(c1ccc(F)cc1)C2	87%	92%	3.3 nM	1.4 nM	91.7 mL/min/kg	5.1 ×10⁻⁶ cm/s	17 nM	1.2 nM	2.5 nM	76%	100%	96%	96%	100%
Cn1cc2c3c(c[nH]c3c1=O)CN(c1ccc(F)cc1F)c1ccc(CS(C)(=O)=O)cc1-2	97%	79%	0.87 nM	3.4 nM	< 51.7 mL/min/kg	13 ×10⁻⁶ cm/s	10 nM	2.6 nM	0.73 nM	60%	81%	81%	82%	95%
Cn1cc2c3c(c[nH]c3c1=O)CN(c1ccccn1)c1ccc(CS(C)(=O)=O)cc1-2	84%	81%	0.62 nM	1.3 nM	50 mL/min/kg	6 ×10⁻⁶ cm/s	10 nM	1.2 nM	1.5 nM	33%	67%	62%	68%	89%
